Measurements: US20070213378A1, “Compounds for modulating cell proliferation, compositions and methods related thereto” (LymphoSign Inc., priority 2006, published 2007)

What was measured:
Type in all cases: cell-based
PANC-1 = test: Cell proliferation assay (WST-1 and/or Alamar Blue), PANC-1; conditions: Homo sapiens; PANC-1, pancreas duct epithelial carcinoma; 72 hours incubation
Description: (§1) Compounds of the present invention were assayed for activity using a WST-1 cell proliferation assay and/or an Alamar Blue-based assay.
(§2) The WST-1 cell proliferation assay employed was obtained from Chemicon International, Inc. of Temecula, Calif. Further information on assay materials and procedure is provided at www.chemicon.com. The WST-1 cell proliferation assay relies on the formation of a formazan from a tetrazolium salt by cellular enzymes, whereby the amount of the obtained formazan dye as an indicator of viability is directly proportional to the number of metabolically active cells in culture.
(§3) Following 72 hours incubation of the respective cells in 50 μL/well with test compound, 10 μL of WST-1 reagent was added to each well and its contents briefly mixed. The cells were then incubated for 2 hours before absorbance of the dye was measured at 450 nm using a commercial UV/VIS microplate reader (Molecular Devices).
(§4) The Alamar Blue assay employed the CellTiter-Blue™ Cell Viability Assay from Promega Corporation of Madison, Wis. Further information on assay materials and procedure is provided at www.promega.com. The Alamar Blue-based CellTiter-Blue assay indicates cell viability by measuring the ability of cells in culture to reduce resazurin to resorufin, whereby the intensity of the fluorescence signal is directly proportional to the number of live cells. […]

SUP-B15 = test: Cell proliferation assay (WST-1 and/or Alamar Blue), SUP-B15; conditions: SUP-B15, human B-cell derived acute lymphoblastic leukemia; 72 hours incubation
Description: as §1, §2, §3, §4

MOLM-13 = test: Cell proliferation assay (WST-1 and/or Alamar Blue), MOLM-13; conditions: MOLM-13, human acute myeloid leukemia; 72 hours incubation
Description: as §1, §2, §3, §4

MDA-MB453 = test: Cell proliferation assay (WST-1 and/or Alamar Blue), MDA-MB453; conditions: Homo sapiens, MDA-MB-453; MDA-MB453, metastatic breast carcinoma; 72 hours incubation
Description: as §1, §2, §3, §4

SKM-1 = test: Cell proliferation assay (WST-1 and/or Alamar Blue), SKM-1; conditions: SKM-1, human acute myeloid leukemia; 72 hours incubation
Description: as §1, §2, §3, §4

CCRF-CEM = test: Cell proliferation assay (WST-1 and/or Alamar Blue), CCRF-CEM; conditions: human T-cell derived lymphoblastic leukemia, 72 hours incubation
Description: as §1, §2, §3, §4

KASUMI-1 = test: Cell proliferation assay (WST-1 and/or Alamar Blue), KASUMI-1; conditions: KASUMI-1, human acute myeloid leukemia; 72 hours incubation
Description: as §1, §2, §3, §4

DAOY = test: Cell proliferation assay (WST-1 and/or Alamar Blue), DAOY; conditions: Homo sapiens, cerebellar medulloblastoma, 72 hours incubation
Description: as §1, §2, §3, §4

OCI-AML2 = test: Cell proliferation assay (WST-1 and/or Alamar Blue), OCI-AML2; conditions: OCI-AML2, human acute myeloid leukemia; 72 hours incubation
Description: as §1, §2, §3, §4

PEER = test: Cell proliferation assay (WST-1 and/or Alamar Blue), PEER; conditions: human T-cell derived lymphoblastic leukemia, 72 hours incubation
Description: as §1, §2, §3, §4

NCI-H460 = test: Cell proliferation assay (WST-1 and/or Alamar Blue), NCI-H460; conditions: Homo sapiens; NCI-H460, large cell lung carcinoma; 72 hours incubation
Description: as §1, §2, §3, §4

SK-MEL-5 = test: Cell proliferation assay (WST-1 and/or Alamar Blue), SK-MEL-5; conditions: Homo sapiens; SK-MEL-5, malignant melanoma; 72 hours incubation
Description: as §1, §2, §3, §4

MCF-7 = test: Cell proliferation assay (WST-1 and/or Alamar Blue), MCF-7; conditions: Homo sapiens, MCF7; MCF-7, epithelial mammary adenocarcinoma; 72 hours incubation
Description: as §1, §2, §3, §4

MOLT-4 = test: Cell proliferation assay (WST-1 and/or Alamar Blue), MOLT-4; conditions: MOLT-4, human T-cell derived lymphoblastic leukemia; 72 hours incubation
Description: as §1, §2, §3, §4

786-0 = test: Cell proliferation assay (WST-1 and/or Alamar Blue), 786-0; conditions: Homo sapiens; 786-0, renal cell adenocarcinoma; 72 hours incubation
Description: as §1, §2, §3, §4

C1 = test: Cell proliferation assay (WST-1 and/or Alamar Blue), C1; conditions: C1, human B-cell derived acute lymphoblastic leukemia; 72 hours incubation
Description: as §1, §2, §3, §4

OVCAR-5 = test: Cell proliferation assay (WST-1 and/or Alamar Blue), OVCAR-5; conditions: Homo sapiens; OVCAR-5, ovarian carcinoma; 72 hours incubation
Description: as §1, §2, §3, §4

A549 = test: Cell proliferation assay (WST-1 and/or Alamar Blue), A549; conditions: Homo sapiens; A549, lung carcinoma; 72 hours incubation
Description: as §1, §2, §3, §4

DU145 = test: Cell proliferation assay (WST-1 and/or Alamar Blue), DU145; conditions: Homo sapiens, DU-145; DU145, prostate carcinoma; 72 hours incubation
Description: as §1, §2, §3, §4

MV4-11 = test: Cell proliferation assay (WST-1 and/or Alamar Blue), MV4-11; conditions: MV4-11, human acute myelo-monocytic leukemia; 72 hours incubation
Description: as §1, §2, §3, §4

MiaPACA-2 = test: Cell proliferation assay (WST-1 and/or Alamar Blue), MiaPACA-2; conditions: Homo sapiens, MIA PaCa-2; MiaPACA-2, pancreas carcinoma; 72 hours incubation
Description: as §1, §2, §3, §4

RS4-11 = test: Cell proliferation assay (WST-1 and/or Alamar Blue), RS4-11; conditions: RS4-11, human B-cell derived acute lymphoblastic leukemia; 72 hours incubation
Description: as §1, §2, §3, §4

HCT-116 = test: Cell proliferation assay (WST-1 and/or Alamar Blue), HCT-116; conditions: Homo sapiens; HCT-116, colorectal carcinoma; 72 hours incubation
Description: as §1, §2, §3, §4

SKOV-3 = test: Cell proliferation assay (WST-1 and/or Alamar Blue), SKOV-3; conditions: Homo sapiens, SK-OV-3; SKOV-3, ovarian adenocarcinoma; 72 hours incubation
Description: as §1, §2, §3, §4

ACHN = test: Cell proliferation assay (WST-1 and/or Alamar Blue), ACHN; conditions: Homo sapiens, renal cell adenocarcinoma, 72 hours incubation
Description: as §1, §2, §3, §4

PC3 = test: Cell proliferation assay (WST-1 and/or Alamar Blue), PC3; conditions: Homo sapiens, PC-3; PC3, prostate adenocarcinoma; 72 hours incubation
Description: as §1, §2, §3, §4

For CC(C)C(=O)Nc1cccc(C(=O)Nc2nnc(CCc3ccccc3)s2)c1 [Compound A], which IC50 (PANC-1) is on record?
Its IC50 is > 20 µM.

And the IC50 (SUP-B15)?
The IC50 was 4.82 µM.

And the IC50 (MOLM-13)?
Its IC50 is 0.83 µM.

And the IC50 (MDA-MB453)?
The IC50 was 1.71 µM.

What about the IC50 (SKM-1) of the same molecule?
The IC50 was 0.6 µM.

And the IC50 (CCRF-CEM)?
The IC50 was 0.97 µM.

What about the IC50 (KASUMI-1) of the same molecule?
The IC50 was ≥ 20 µM.

What about the IC50 (DAOY) of the same molecule?
Its IC50 is 2.7 µM.

What about the IC50 (OCI-AML2) of the same molecule?
Its IC50 is 0.35 µM.

And the IC50 (PEER)?
Its IC50 is > 20 µM.

What about the IC50 (NCI-H460) of the same molecule?
The IC50 was 2.32 µM.

What about the IC50 (SK-MEL-5) of the same molecule?
The IC50 was 2.39 µM.

What about the IC50 (MCF-7) of the same molecule?
The IC50 was > 20 µM.

And the IC50 (MOLT-4)?
The IC50 was 0.34 µM.

What about the IC50 (786-0) of the same molecule?
Its IC50 is 4.34 µM.

What about the IC50 (C1) of the same molecule?
Its IC50 is 0.57 µM.

What about the IC50 (OVCAR-5) of the same molecule?
The IC50 was 6.65 µM.

And the IC50 (A549)?
The IC50 was 19.1 µM.

What about the IC50 (DU145) of the same molecule?
The IC50 was 6.14 µM.

And the IC50 (MV4-11)?
The IC50 was 0.93 µM.

What about the IC50 (MiaPACA-2) of the same molecule?
The IC50 was 3.36 µM.

And the IC50 (RS4-11)?
Its IC50 is 0.13 µM.

What about the IC50 (HCT-116) of the same molecule?
The IC50 was 17.3 µM.

And the IC50 (SKOV-3)?
Its IC50 is 3.5 µM.

What about the IC50 (ACHN) of the same molecule?
The IC50 was 5 µM.

And the IC50 (PC3)?
Its IC50 is 2.35 µM.
